Data: article PMC4484629, “Targeting of anti-citrullinated protein/peptide antibodies in rheumatoid arthritis using peptides mimicking endogenously citrullinated fibrinogen antigens” (Arthritis Research & Therapy, 2015)
Values joined by “and” are separate entries in the source; they are usually repeats but may differ in a detail not shown here. Equal entries are not always repeated. Where a SMILES comes first, the peptide text is derived from it. [ ]: non-standard residue; d: D form. Cit = NC(=O)NCCC[C@H](N)C(=O)O

Legend:
[1] = system: ACPA pool II (affinity purified human anti-CCP2 IgG); assay: ACPA competition assay: peptide pre-incubated with ACPA, then anti-CCP2 ELISA (CCPlus); format: binding; conditions: for maximum ACPA blocking (inhibition of anti-CCP2 reactivity): ACPA pool II 1.2 μg/ml (8 nM IgG), peptide 0.016-320 nmol in 225 μl, 1 h room temperature before CCP2 ELISA, mean of 2-7 experiments; for IC50: ACPA pool II 1.2 μg/ml, 1 h room temperature pre-incubation, mean ± SEM, n given per value (n = 2-4), GraphPad Prism, read-out: IC50 of ACPA blocking (relative IC50)
Description: (§1) ACPA were affinity purified as recently described. Two different ACPA pools were prepared for the competition assays: ACPA pool I, containing autoantibodies purified from 11 plasma or serum samples (plasma n = 4, sera n = 7); and ACPA pool II, containing 39 plasma or serum samples (plasma n = 38, serum n = 1). Before pooling, each purified ACPA sample was individually tested by in house ELISA for immunoreactivity to fibrinogen Cit573 and citrullinated fibrinogen 36-52 [24]. Anti-CCP2 reactivity was determined using the Immunoscan CCPlus® assay. All pooled samples were CCP2 positive.
(§2) ACPA pools I and II were used at a concentration of 1.2 μg/ml (8 nM IgG). The autoantibodies were incubated with the fibrinogen and fibrinogen-derived peptides at room temperature for one hour. The mole quantities of peptides tested were: 0.016, 0.16, 1.6, 16, 22, 49, 60, 80, 120, 160, 216, and 320 nmol in an incubation volume of 225 μl. ACPA blocking by the fibrinogen peptides was subsequently assessed by measuring the remaining anti-CCP2 reactivity. Cit573 and Cit591 were equally combined and co-tested for ACPA blocking. Arginine peptides (573, 591, 72, and 74) were used as negative controls in all assays.
(§3) To further explore the blocking potential of Cit573, a retrieval assay was performed, that is, the ability of the peptide to compete with already CCP2-bound ACPA was tested. ACPA pool I was added to the CCP2 plate and incubated for one hour at room temperature, followed by the addition of the peptides (citrulline and unmodified peptides) at mole quantities ranging from 16 to 320 nmol. ACPA pools incubated with no peptide were defined as positive control, giving the maximum values of anti-CCP2 reactivity. Arbitrary units were calculated according to the standard curve given by the ELISA kit. Each experiment had one standard curve. Mean values were calculated and results are expressed as a function of percentage of inhibition of ACPA from the peptide amount (nmol).
(§4) Results are presented as mean ± standard error (SEM) of values (two to seven experiments per ACPA pool), and were compared using the Student’s t-test for unpaired comparisons using GraphPad Prism 6 software (La Jolla, CA, USA). Median values were also calculated in order to consider non-Gaussian distributions. As the mean and median values were generally coincident, the Mann-Whitney U test was not selected for statistical analysis. P <0.05 was assumed to denote a significant difference. Relative IC50 values (IC50 definition according to International Union of Pharmacology Committee on Receptor Nomenclature and Drug Classification – ‘the molar concentration of an antagonist that reduces the response to an agonist by 50 %’ [25]) were also calculated using GraphPad Prism 6 software. Cutoffs for the ISAC system chip data were calculated as the 98th percentile reactivity among the 461 EIRA controls investigated in parallel to the 927 RA patients.

[2] = system: ACPA pool I (affinity purified human anti-CCP2 IgG); assay: as above; format: binding; conditions: for maximum ACPA blocking (inhibition of anti-CCP2 reactivity): ACPA pool I 1.2 μg/ml (8 nM IgG), peptide 0.016-320 nmol in 225 μl, 1 h room temperature before CCP2 ELISA, mean of 2-7 experiments; for IC50: ACPA pool I 1.2 μg/ml, 1 h room temperature pre-incubation, mean ± SEM, n given per value (n = 2-6), GraphPad Prism, read-out: IC50 of ACPA blocking (relative IC50)
Description: as §1, §2, §3, §4

[3] = system: sera from RA patients (EIRA cohort); assay: Peptide microarray (ImmunoCAP ISAC), immune reactivity of sera against the fibrinogen peptides; format: binding, human; conditions: for positive immune reactivity among anti-CCP2-positive RA patients: 402 CCP2-positive RA sera; for positive immune reactivity among anti-CCP2-positive RA patients / positive immune reactivity among anti-CCP2-negative RA patients: cutoff 98th percentile of healthy controls; for positive immune reactivity among anti-CCP2-negative RA patients: 525 CCP2-negative RA sera; for diagnostic sensitivity among all 927 RA patients: share of sera positive, Arg control intensity subtracted, cutoff 98th percentile of 461 healthy controls (98 % specificity)
Description: Serum from 927 RA patients (newly diagnosed patients within 12 months of appearance of first symptoms; 402 CCP2 positive and 525 CCP2 negative) and 461 healthy controls from the Epidemiological Investigation of RA (EIRA) case-control cohort were collected. Control samples were randomly chosen from the Swedish population registry, matching for age, sex, and residential area. All serum and plasma samples were stored at −70 °C prior to analysis. All patients fulfilled the American College of Rheumatology-European League Against Rheumatism criteria for RA [20]. CCP2-positive RA individuals used for ACPA affinity purification were selected based on having high anti-CCP2 antibody levels (>300 AU/ml, Immunoscan CCPlus® assay, Euro-Diagnostica AB, Sweden). All patients gave written informed consent. This study was approved by the regional ethical committee at the Karolinska Institutet (96-174), and performed in accordance with the Declaration of Helsinki.
Peptide microarray was performed as previously described. Briefly, peptides (sequences in Table 1) were immobilized onto a chemically modified glass slide, sera from RA patients and healthy controls were applied into the reactions sites, and fluorescence intensity after incubation with anti-human IgG antibody was acquired in a laser scanner (LuxScan 10K, CapitalBio, Beijing, China). Final results for each citrullinated peptide were calculated by subtracting the intensity values of the corresponding arginine-containing control from the citrullinated peptide for all RA patients and controls. Cutoff values were determined as the 98th percentile of the healthy control responses. Microarray data are available in the ArrayExpress database under accession number [EMBL:E-MTAB-3606].
as §4

[4] = system: ACPA pool I bound to CCP2 plate; assay: Retrieval assay: peptide competes with already CCP2-bound ACPA; format: binding, human; conditions: ACPA pool I bound to CCP2 plate 1 h room temperature, then peptide 16-320 nmol; data not shown
Description: as §3

Structure (SMILES)	maximum ACPA blocking (inhibition of anti-CCP2 reactivity) [1]	maximum ACPA blocking (inhibition of anti-CCP2 reactivity) [2]	maximum ACPA blocking (inhibition of anti-CCP2 reactivity) ([2]; listed as cyclic form of the Cit573 peptide)	IC50 [2]	positive immune reactivity among anti-CCP2-positive RA patients [3]	positive immune reactivity among anti-CCP2-negative RA patients [3]	diagnostic sensitivity among all 927 RA patients [3]	IC50 [1]	ACPA binding to the CCP2 ELISA plate reverted (retrieval) [4]
CC[C@H](C)[C@@H]1NC(=O)CNC(=O)[C@@H]2CCCN2C(=O)[C@H](Cc2c[nH]cn2)NC(=O)[C@H](Cc2c[nH]cn2)NC(=O)[C@H](CS)NC(=O)[C@H](Cc2ccccc2)NC(=O)[C@H](CCC(N)=O)NC(=O)[C@H](CCCCN)NC(=O)[C@H](CO)NC(=O)[C@H](Cc2ccc(O)cc2)NC(=O)[C@H](CO)NC(=O)[C@H](CO)NC(=O)[C@H](CO)NC(=O)[C@H](CCCCN)NC(=O)CNC(=O)[C@H](CCCNC(N)=O)NC(=O)[C@H](CO)NC(=O)[C@@H]2CCCN2C(=O)[C@H](Cc2ccccc2)NC(=O)[C@H](CCC(=O)O)NC(=O)[C@H](C)NC1=O [Cit573Cyc] (cyclo(CHHPGIAEFPS[Cit]GKSSSYSKQF))	approximately 90%	92%	approximately 90%	28 µM	–	–	–	–	–
C[C@@H](O)[C@H](NC(=O)[C@H](CO)NC(=O)[C@H](CC(=O)O)NC(=O)CNC(=O)[C@H](CCCNC(N)=O)NC(=O)[C@H](CC(N)=O)NC(=O)[C@H](Cc1ccc(O)cc1)NC(=O)[C@H](CO)NC(=O)[C@@H](NC(=O)[C@H](CO)NC(=O)[C@H](CO)NC(=O)[C@@H](NC(=O)[C@H](Cc1ccccc1)NC(=O)[C@H](CCC(N)=O)NC(=O)[C@H](CCCCN)NC(=O)[C@@H](N)CO)[C@@H](C)O)[C@@H](C)O)C(=O)N[C@@H](Cc1ccccc1)C(=O)N[C@@H](CCC(=O)O)C(=O)N[C@@H](CO)C(=O)N[C@@H](CCCCN)C(=O)N[C@@H](CO)C(=O)O [Cit591] (H-SKQFTSSTSYN[Cit]GDSTFESKS-OH)	–	63%	–	194 µM	15% and 14.7%	6% and 6.1%	9.8%	412 µM	–
CC[C@H](C)[C@H](NC(=O)CNC(=O)[C@@H]1CCCN1C(=O)[C@H](Cc1c[nH]cn1)NC(=O)[C@@H](N)Cc1c[nH]cn1)C(=O)N[C@@H](C)C(=O)N[C@@H](CCC(=O)O)C(=O)N[C@@H](Cc1ccccc1)C(=O)N1CCC[C@H]1C(=O)N[C@@H](CO)C(=O)N[C@@H](CCCNC(N)=O)C(=O)NCC(=O)N[C@@H](CCCCN)C(=O)N[C@@H](CO)C(=O)N[C@@H](CO)C(=O)N[C@@H](CO)C(=O)N[C@@H](Cc1ccc(O)cc1)C(=O)N[C@@H](CO)C(=O)N[C@@H](CCCCN)C(=O)N[C@@H](CCC(N)=O)C(=O)N[C@@H](Cc1ccccc1)C(=O)O [Cit573] (H-HHPGIAEFPS[Cit]GKSSSYSKQF-OH)	Approximately 50%	84%	–	59 µM	65% and 65.4%	5% and 5.5%	31.5%	548 µM	80%
C[C@H](N)C(=O)N[C@@H](CCC(=O)O)C(=O)N[C@@H](Cc1ccccc1)C(=O)N1CCC[C@H]1C(=O)N[C@@H](CO)C(=O)N[C@@H](CCCNC(N)=O)C(=O)NCC(=O)N[C@@H](CCCCN)C(=O)N[C@@H](CO)C(=O)N[C@@H](CO)C(=O)N[C@@H](CO)C(=O)O [Cit573Lin2] (H-AEFPS[Cit]GKSSS-OH; N-terminus assumed)	40%	69%	–	123 µM	–	–	–	105 µM	–
CC[C@H](C)[C@H](NC(=O)CN)C(=O)N[C@@H](C)C(=O)N[C@@H](CCC(=O)O)C(=O)N[C@@H](Cc1ccccc1)C(=O)N1CCC[C@H]1C(=O)N[C@@H](CO)C(=O)N[C@@H](CCCNC(N)=O)C(=O)NCC(=O)N[C@@H](CCCCN)C(=O)N[C@@H](CO)C(=O)N[C@@H](CO)C(=O)N[C@@H](CO)C(=O)N[C@@H](Cc1ccc(O)cc1)C(=O)N[C@@H](CO)C(=O)O [Cit573Lin1] (H-GIAEFPS[Cit]GKSSSYS-OH; N-terminus assumed)	47%	75%	–	51 µM	–	–	–	186 µM	–
